Several values for one entry are separate records, joined by “and”; a condition that tells them apart may be missing. Equal entries are not always repeated. Where two headings read alike, the source gives them in different places.
Assays:
Assay type in all cases: in vivo
SOLNI = test: Herbicidal action, visual scoring; conditions: Table 10, post-emergence, scoring 3 weeks after application, g of A.S./ha by row: r7 120, r8 60, r9 30, r10 15, r11 12, r12 6, r13 3, r14 30 + 6, r16 15 + 6, r18 30 + 3
Procedure: (§1) The herbicidal activity of the active substances or active substance mixtures was scored visually with the aid of the treated parcels in comparison with untreated control parcels. Damage to and development of all above-ground parts of plants was recorded here. Scoring was carried out on a percentage scale (100% action=all plants died; 50% action=50% of the plants and green plant parts died; 0% action=no discernible action=like control parcels. The mean of the scoring values of 4 parcels in each case was taken.
(§2) Seeds or rhizome pieces of monocotyledonous and dicotyledonous weeds are placed in sandy loam soil in pots, covered with soil and grown in the greenhouse under good growth conditions (temperature, humidity, water supply). Three weeks after sowing, the test plants in the three-leaf stage are treated with the compositions according to the invention. The compositions according to the invention which are formulated as wettable powders or as emulsion concentrates are sprayed in various dosages on the green parts of the plants at an application rate of 600 to 800 l of water/ha (converted). After the test plants have remained in the greenhouse for about 3 to 4 weeks under optimal growth conditions, the effect of the products is scored visually by comparison with untreated controls. When applied post-emergence, too, the compositions according to the invention have a good herbicidal activity against a broad spectrum of economically important grass weeds and broad-leaved weeds.
(§3) Crop plants were raised outdoors under natural outdoor conditions on plots in which seeds or rhizome sections of typical harmful plants had been sown or the natural weed infestation was used. The treatment with the compositions according to the invention was carried out after the emergence of the harmful plants and the crop plants, as a rule in the 2 to 4-leaf stage; in some cases (as indicated) the application of individual active substances or active substance combinations was carried out pre-emergence (cf. Example 1) or as a sequence treatment, in some cases pre-emergence and/or post-emergence.
(§4) After the application, e.g. 2, 4, 6 and 8 weeks after application, the action of the preparations was scored visually in comparison with untreated controls (cf. score in Example 1). […] The crop plants, however, were not damaged or were only insignificantly damaged as a result of the treatment with the herbicidal compositions.

corn = conditions: post-emergence
Procedure: as §1, §3, §4

Digitaria sanguinalis = test: Herbicidal action, visual scoring; conditions: post-emergence, scoring 4 weeks after application
Procedure: as §1, §2, §3, §4

[1] = test system: POLCO = Polygonum convolvulus; test: Herbicidal action, visual scoring; conditions: Table 15; post-emergence; scoring 4 weeks after application; g of A.S./ha by row: r6 30, r7 15, r8 7.5, r9 900, r10 450, r12 600, r14 20, r16 30 + 450, r17 7.5 + 900, r18 30 + 600, r19 7.5 + 600, r20 15 + 20, r21 7.5 + 20
Procedure: as §1, with “taken. […]” for “taken.”
as §3, §4

[2] = test system: CHEAL = Chenopodium album; test: Herbicidal action, visual scoring; conditions: Table 9, post-emergence, scoring 3 weeks after application, g of A.S./ha by row: r6 120, r7 60, r8 30, r9 15, r10 60, r11 30, r12 15, r13 30 + 30, r14 15 + 30, r15 30 + 15, r16 2000, r17 1000, r18 500, r19 30 + 1000, r20 15 + 1000, r21 30 + 500
Procedure: as §1, §2, §3, §4

Ipomoea purpurea = test: Herbicidal action, visual scoring; conditions: Table 1, post-emergence, scoring 3 weeks after application, g of A.S./ha: 45, 60, 75, 1000, 2000, 3000, 75 + 1000
Procedure: as §1, §2, §3, §4

[3] = Table 9, scoring 3 weeks after application, g of A.S./ha by row: r6 120, r7 60, r8 30, r9 15, r10 60, r11 30, r12 15, r13 30 + 30, r14 15 + 30, r15 30 + 15, r16 2000, r17 1000, r18 500, r19 30 + 1000, r20 15 + 1000, r21 30 + 500

`CCS(=O)(=O)c1cccnc1S(=O)(=O)NC(=O)Nc1nc(OC)cc(OC)n1` [(B1.3.2), rimsulfuron] was tested, and the “Herbicidal action SOLNI” value (SOLNI; 3 g active substance per ha) was 35%, the “Herbicidal action SOLNI” value (SOLNI; 6 g active substance per ha) was 45% and the “Herbicidal action SOLNI” value (SOLNI; 12 g active substance per ha) was 60%.

In the case of `CCc1cccc(CC)c1N(COC)C(=O)CCl` [(B1.1.1), alachlor], the Damage on corn (corn; Table 17, scoring 4 weeks after application, g of A.S./ha by row: r6 60, r7 30, r8 15, r9 2000, r10 1000, r11 500, r12 15 + 1000, r13 30 + 500, r14 2000, r15 1000, r16 500, r17 30 + 500, r18 15 + 500, r19 15 + 1000) is reported as 0%, the “Herbicidal action Digitaria sanguinalis” value (Digitaria sanguinalis; Table 17, g of A.S./ha by row: r6 60, r7 30, r8 15, r9 2000, r10 1000, r11 500, r12 15 + 1000, r13 30 + 500, r14 2000, r15 1000, r16 500, r17 30 + 500, r18 15 + 500, r19 15 + 1000, 500 g A.S./ha) is reported as 40% and the “Herbicidal action Digitaria sanguinalis” value (Digitaria sanguinalis; Table 17, g of A.S./ha by row: r6 60, r7 30, r8 15, r9 2000, r10 1000, r11 500, r12 15 + 1000, r13 30 + 500, r14 2000, r15 1000, r16 500, r17 30 + 500, r18 15 + 500, r19 15 + 1000, 1000 g A.S./ha) is reported as 50%. For the same molecule, the “Herbicidal action Digitaria sanguinalis” value (Digitaria sanguinalis; Table 17, g of A.S./ha by row: r6 60, r7 30, r8 15, r9 2000, r10 1000, r11 500, r12 15 + 1000, r13 30 + 500, r14 2000, r15 1000, r16 500, r17 30 + 500, r18 15 + 500, r19 15 + 1000, 2000 g A.S./ha) was 65%.

`CC(C)N(C(=O)COc1nnc(C(F)(F)F)s1)c1ccc(F)cc1` [(B1.2.7), fluthiamid] was tested, and the Damage on corn (corn; Table 15, scoring 4 weeks after application, g of A.S./ha by row: r6 30, r7 15, r8 7.5, r9 900, r10 450, r12 600, r14 20, r16 30 + 450, r17 7.5 + 900, r18 30 + 600, r19 7.5 + 600, r20 15 + 20, r21 7.5 + 20) was 0% and the “Herbicidal action Polygonum convolvulus” value [1] was 25%.

For `O=C(O)c1nc(Cl)ccc1Cl` [(B2.3.6), clopyralid], the Damage on corn (corn; Table 19, scoring 3 weeks after application, g of A.S./ha by row: r6 60, r7 30, r8 15, r9 120, r10 60, r11 30, r12 30 + 30, r13 30 + 60, r14 60 + 30) was 0% and 3%.

With `Cc1cc(Cl)ccc1OCC(=O)O` [(B2.5.2), MCPA] the Damage on corn (corn; Table 16, scoring 4 weeks after application, g of A.S./ha: 60, 30, 15, 1500, 750, 375, 30 + 750, 30 + 375, 15 + 750, 60 + 375) was 6% and 0% and 10%.

For `CCNc1nc(Cl)nc(NC(C)(C)C#N)n1` [(B1.2.3), cyanazine], the Damage on corn (corn; Table 14, scoring 4 weeks after application, g of A.S./ha by row: r6 30, r7 15, r8 7.5, r9 2200, r10 1100, r11 550, r12 7.5 + 2200, r13 7.5 + 1100) was 12% and 5% and 15%.

For `COc1nc(NC(=O)NS(=O)(=O)c2ccccc2C(F)(F)F)nc(C(F)(F)F)n1` [(B2.4.5), tritosulfuron], the Damage on corn (corn; Table 7, scoring 3 weeks after application, g of A.S./ha by row: r6 15, r7 30, r8 45, r9 60, r10 2.5, r11 5, r12 15 + 2.5, r13 15 + 5) was 1%.

`CCc1cccc(C)c1N(C(=O)CCl)C(C)COC` (stereo not shown) [(B1.1.2), metolachlor] was tested, and the Damage on corn (corn; [3]) was 0% and the “Herbicidal action CHEAL” value [2] was 0%.

`CS(=O)(=O)c1ccc(C(=O)C2C(=O)CCCC2=O)c(Cl)c1` [(B1.4.2), sulcotrione] gave a Damage on corn (corn; Table 11, scoring 3 weeks after application, g of A.S./ha by row: r6 120, r7 60, r8 30, r9 15, r10 2000, r11 1000, r12 500, r13 30 + 1000, r14 15 + 1000, r15 30 + 500, r16 600, r17 300, r18 150, r19 30 + 300, r20 15 + 300, r21 30 + 150) of 0%.

With `CS(=O)(=O)c1cc(Cl)ccc1C(=O)c1cnoc1C1CC1` [(B1.4.6), isoxachlortole] the Damage on corn (corn; Table 18, scoring 4 weeks after application, g of A.S./ha by row: r6 45, r7 22.5, r8 12.5, r9 25, r12 12.5 + 25, r13 12.5 + 12.5) was 12%, the “Herbicidal action Digitaria sanguinalis” value (Digitaria sanguinalis; Table 18, g of A.S./ha by row: r6 45, r7 22.5, r8 12.5, r9 25, r10 12.5, r12 12.5 + 25, r13 12.5 + 12.5, 12.5 g of A.S./ha) was 30% and the “Herbicidal action Digitaria sanguinalis” value (Digitaria sanguinalis; Table 18, g of A.S./ha by row: r6 45, r7 22.5, r8 12.5, r9 25, r10 12.5, r12 12.5 + 25, r13 12.5 + 12.5, 25 g of A.S./ha) was 45%.

With `COc1cc(OC)n2nc(S(=O)(=O)Nc3c(Cl)ccc(C)c3Cl)nc2n1` [(B1.5.1), metosulam] the “Herbicidal action Polygonum convolvulus” value [1] was 55%.

For `CCNc1nc(Cl)nc(NC(C)C)n1` [(B1.2.1), atrazine], the Damage on corn (corn; Table 1, scoring 3 weeks after application, g of A.S./ha: 45, 60, 75, 1000, 2000, 3000, 75 + 1000) was 0%, the “Herbicidal action against Ipomoea purpurea” value (Ipomoea purpurea; 1000 g active substance per ha) was 70% and the “Herbicidal action against Ipomoea purpurea” value (Ipomoea purpurea; 2000 g active substance per ha) was 85%. The “Herbicidal action against Ipomoea purpurea” value (Ipomoea purpurea; 3000 g active substance per ha) was 90%.

In the case of `COc1cc(OC)nc(NC(=O)NS(=O)(=O)c2ncccc2C(=O)N(C)C)n1` [(B1.3.1), nicosulfuron], the Damage on corn (corn; [3]) is reported as 0%, the “Herbicidal action CHEAL” value ([2]; 15 g active substance/ha) is reported as 55% and the “Herbicidal action CHEAL” value ([2]; 30 g active substance/ha) is reported as 65%. The “Herbicidal action CHEAL” value ([2]; 60 g active substance/ha) was 90%.

Reference: patent US6486096B1, “Herbicidal compositions with acylated aminophenylsulfonylureas” (priority 1998, dated 2002)
